Experimental data from paper PMC11748363, “Antimicrobial and Antiproliferative Properties of 2‐Phenyl‐N‐(Pyridin‐2‐yl)acetamides” (Chemical Biology & Drug Design, 2025).
In brackets after ≈: the same amount, converted by molar mass. Where two headings read alike, the source gives them in different places.

Tests used:
[1] = test system: Trichophyton interdigitale CCM 8377, ATCC 9533; assay: Antifungal microdilution broth MIC, TI; details: Trichophyton interdigitale
[2] = test system: Klebsiella pneumoniae CCM 4415, ATCC 10031; assay: Antibacterial microdilution broth MIC, KP
[3] = test system: Aspergillus flavus CCM 8363; assay: Antifungal microdilution broth MIC, AFla
[4] = test system: Aspergillus fumigatus ATCC 204305; assay: Antifungal microdilution broth MIC, AF
[5] = test system: Mycolicibacterium smegmatis DSM 43465; assay: Antimycobacterial microdilution broth MIC (resazurin), M. smegmatis; assay type: cell-based; details: DSM43465, read-out: MIC M. smegmatis
[6] = test system: Mycolicibacterium aurum DSM 43999; assay: Antimycobacterial microdilution broth MIC (resazurin), M. aurum; assay type: cell-based; details: DSM43999, read-out: MIC M. aurum
[7] = test system: Candida krusei CCM 8271, ATCC 6258; assay: Antifungal microdilution broth MIC, CK; details: Pichia kudriavzevii
[8] = test system: Mycobacterium tuberculosis H37Ra; assay: Antimycobacterial microdilution broth MIC (resazurin), Mtb H37Ra; assay type: cell-based; details: for MIC: Mycobacterium tuberculosis, H37RA, read-out: MIC Mtb H37Ra
[9] = test system: Enterococcus faecalis CCM 4224, ATCC 29212; assay: Antibacterial microdilution broth MIC, EF; assay type: cell-based
[10] = test system: HepG2 cell line; assay: Cytotoxicity CellTiter 96, HepG2; assay type: cell-based, human; details: Homo sapiens, HepG2, 24 h, 24 h incubation; ^c compound precipitated in the testing medium; ^d over the limit of tested concentrations
[11] = test system: Pseudomonas aeruginosa CCM 3955, ATCC 27853; assay: Antibacterial microdilution broth MIC, PA; assay type: cell-based
[12] = test system: Acinetobacter baumannii DSM 30007, ATCC 19606; assay: Antibacterial microdilution broth MIC, ACI; assay type: cell-based
[13] = test system: Candida albicans CCM 8320, ATCC 24433; assay: Antifungal microdilution broth MIC, CA
[14] = test system: Candida tropicalis CCM 8264, ATCC 750; assay: Antifungal microdilution broth MIC, CT
[15] = test system: Candida parapsilosis CCM 8260, ATCC 22019; assay: Antifungal microdilution broth MIC, CP; details: Lodderomyces parapsilosis
[16] = test system: Staphylococcus epidermidis CCM 4418, ATCC 12228; assay: Antibacterial microdilution broth MIC, SE; assay type: cell-based
[17] = test system: Escherichia coli CCM 3954, ATCC 25922; assay: Antibacterial microdilution broth MIC, EC; assay type: cell-based
[18] = test system: Staphylococcus aureus CCM 4223, ATCC 29213; assay: Antibacterial microdilution broth MIC, SA; assay type: cell-based; details: Staphylococcus aureus
[19] = test system: Lichtheimia corymbifera CCM 8077; assay: Antifungal microdilution broth MIC, LC
[20] = test system: Staphylococcus aureus subsp. aureus CCM 4750, ATCC 43300 (MRSA); assay: Antibacterial microdilution broth MIC, MRSA; assay type: cell-based; details: Staphylococcus aureus
[21] = CCM8363, 24 h, read-out: MIC AFla 24h
[22] = CCM8363, 48 h, read-out: MIC AFla 48h
[23] = ATCC204305, 24 h, read-out: MIC AF 24h
[24] = ATCC204305, 48 h, read-out: MIC AF 48h
[25] = CCM8077, 24 h, read-out: MIC LC 24h
[26] = CCM8077, 48 h, read-out: MIC LC 48h

SMILES	MIC ([1]; 72 h, read-out: MIC TI 72h)	MIC ([1]; 120 h, read-out: MIC TI 120h)	MIC KP 24h [2]	MIC KP 48h [2]	MIC [3, 21]	MIC [3, 22]	MIC [4, 23]	MIC [4, 24]	MIC [5]	MIC [6]	MIC ([7]; 24 h, read-out: MIC CK 24h)	MIC ([7]; 48 h, read-out: MIC CK 48h)	MIC ([8]; Calculated from MIC (μg/mL))	MIC [8]	MIC ([9]; 24 h, read-out: MIC EF 24h)	MIC ([9]; 48 h, read-out: MIC EF 48h)	IC50 [10]	MIC ([11]; 24 h, read-out: MIC PA 24h)	MIC ([11]; 48 h, read-out: MIC PA 48h)	MIC ([12]; 24 h, read-out: MIC ACI 24h)	other results
O=C(Cc1ccccc1Cl)Nc1ccc(Cl)cn1 [Compound 14, 2-(2-chlorophenyl)-N-(5-chloropyridin-2-yl)acetamide]	> 500 µM	> 500 µM	> 500 µM	> 500 µM	> 500 µM	> 500 µM	> 500 µM	> 500 µM	> 500 µg/mL	> 500 µg/mL	> 500 µM	> 500 µM	> 1780 µM	> 500 µg/mL	> 500 µM	> 500 µM	> 50 µM	> 500 µM	> 500 µM	> 500 µM	MIC ([12]; 48 h, read-out: MIC ACI 48h): > 500 µM; MIC ([13]; 24 h, read-out: MIC CA 24h): > 500 µM; MIC ([13]; 48 h, read-out: MIC CA 48h): > 500 µM; MIC ([14]; 24 h, read-out: MIC CT 24h): > 500 µM; MIC ([14]; 48 h, read-out: MIC CT 48h): > 500 µM; MIC ([15]; 24 h, read-out: MIC CP 24h): > 500 µM; MIC ([15]; 48 h, read-out: MIC CP 48h): > 500 µM; MIC ([16]; 24 h, read-out: MIC SE 24h): > 500 µM; MIC ([16]; 48 h, read-out: MIC SE 48h): > 500 µM; MIC ([17]; 24 h, read-out: MIC EC 24h): > 500 µM; MIC ([17]; 48 h, read-out: MIC EC 48h): > 500 µM; MIC ([18]; 24 h, read-out: MIC SA 24h): > 500 µM; MIC ([18]; 48 h, read-out: MIC SA 48h): > 500 µM; MIC [19, 25]: > 500 µM; MIC [19, 26]: > 500 µM; MIC ([20]; 24 h, read-out: MIC MRSA 24h): > 500 µM; MIC ([20]; 48 h, read-out: MIC MRSA 48h): > 500 µM
O=C(Cc1cccc(Cl)c1)Nc1ccccn1 [Compound 16, 2-(3-chlorophenyl)-N-(pyridin-2-yl)acetamide]	500 µM (≈ 123 µg/mL)	500 µM (≈ 123 µg/mL)	> 500 µM	> 500 µM	> 500 µM	> 500 µM	> 500 µM	> 500 µM	> 500 µg/mL	250 µg/mL (≈ 1010 µM)	> 500 µM	> 500 µM	253 µM	62.5 µg/mL	> 500 µM	> 500 µM	> 250 µM	> 500 µM	> 500 µM	> 500 µM	MIC ([12]; 48 h, read-out: MIC ACI 48h): > 500 µM; MIC ([13]; 24 h, read-out: MIC CA 24h): > 500 µM; MIC ([13]; 48 h, read-out: MIC CA 48h): > 500 µM; MIC ([14]; 24 h, read-out: MIC CT 24h): > 500 µM; MIC ([14]; 48 h, read-out: MIC CT 48h): > 500 µM; MIC ([15]; 24 h, read-out: MIC CP 24h): > 500 µM; MIC ([15]; 48 h, read-out: MIC CP 48h): > 500 µM; MIC ([16]; 24 h, read-out: MIC SE 24h): 125 µM (≈ 30.8 µg/mL); MIC ([16]; 48 h, read-out: MIC SE 48h): 250 µM (≈ 61.7 µg/mL); MIC ([17]; 24 h, read-out: MIC EC 24h): > 500 µM; MIC ([17]; 48 h, read-out: MIC EC 48h): > 500 µM; MIC ([18]; 24 h, read-out: MIC SA 24h): 500 µM (≈ 123 µg/mL); MIC ([18]; 48 h, read-out: MIC SA 48h): 500 µM (≈ 123 µg/mL); MIC [19, 25]: > 500 µM; MIC [19, 26]: > 500 µM; MIC ([20]; 24 h, read-out: MIC MRSA 24h): > 500 µM; MIC ([20]; 48 h, read-out: MIC MRSA 48h): > 500 µM
COc1ccc(CC(=O)Nc2ccccn2)cc1 [Compound 10, 2-(4-methoxyphenyl)-N-(pyridin-2-yl)acetamide]	500 µM (≈ 121 µg/mL)	500 µM (≈ 121 µg/mL)	> 500 µM	> 500 µM	> 500 µM	> 500 µM	> 500 µM	> 500 µM	62.5 µg/mL (≈ 258 µM)	250 µg/mL (≈ 1030 µM)	500 µM (≈ 121 µg/mL)	500 µM (≈ 121 µg/mL)	516 µM	125 µg/mL	> 500 µM	> 500 µM	> 1000 µM	> 500 µM	> 500 µM	> 500 µM	MIC ([12]; 48 h, read-out: MIC ACI 48h): > 500 µM; MIC ([13]; 24 h, read-out: MIC CA 24h): > 500 µM; MIC ([13]; 48 h, read-out: MIC CA 48h): > 500 µM; MIC ([14]; 24 h, read-out: MIC CT 24h): > 500 µM; MIC ([14]; 48 h, read-out: MIC CT 48h): > 500 µM; MIC ([15]; 24 h, read-out: MIC CP 24h): > 500 µM; MIC ([15]; 48 h, read-out: MIC CP 48h): > 500 µM; MIC ([16]; 24 h, read-out: MIC SE 24h): 500 µM (≈ 121 µg/mL); MIC ([16]; 48 h, read-out: MIC SE 48h): 500 µM (≈ 121 µg/mL); MIC ([17]; 24 h, read-out: MIC EC 24h): > 500 µM; MIC ([17]; 48 h, read-out: MIC EC 48h): > 500 µM; MIC ([18]; 24 h, read-out: MIC SA 24h): > 500 µM; MIC ([18]; 48 h, read-out: MIC SA 48h): > 500 µM; MIC [19, 25]: > 500 µM; MIC [19, 26]: > 500 µM; MIC ([20]; 24 h, read-out: MIC MRSA 24h): > 500 µM; MIC ([20]; 48 h, read-out: MIC MRSA 48h): > 500 µM
O=C(Cc1cccc(Cl)c1)Nc1cccc(Cl)n1 [Compound 18]	500 µM (≈ 141 µg/mL)	500 µM (≈ 141 µg/mL)	> 500 µM	> 500 µM	> 500 µM	> 500 µM	> 500 µM	> 500 µM	> 500 µg/mL	62.5 µg/mL (≈ 222 µM)	> 500 µM	> 500 µM	55.6 µM	15.6 µg/mL	> 500 µM	> 500 µM	> 100 µM	> 500 µM	> 500 µM	> 500 µM	SI (selectivity index) ([8]; SI = HepG2 IC50 (μM)/MIC MtbH37Ra (μM), calculated for compounds with MIC ≤ 31.25 μg/mL): > 1.8; MIC ([12]; 48 h, read-out: MIC ACI 48h): > 500 µM; MIC ([13]; 24 h, read-out: MIC CA 24h): > 500 µM; MIC ([13]; 48 h, read-out: MIC CA 48h): > 500 µM; MIC ([14]; 24 h, read-out: MIC CT 24h): > 500 µM; MIC ([14]; 48 h, read-out: MIC CT 48h): > 500 µM; MIC ([15]; 24 h, read-out: MIC CP 24h): > 500 µM; MIC ([15]; 48 h, read-out: MIC CP 48h): > 500 µM; MIC ([16]; 24 h, read-out: MIC SE 24h): > 500 µM; MIC ([16]; 48 h, read-out: MIC SE 48h): > 500 µM; MIC ([17]; 24 h, read-out: MIC EC 24h): > 500 µM; MIC ([17]; 48 h, read-out: MIC EC 48h): > 500 µM; MIC ([18]; 24 h, read-out: MIC SA 24h): > 500 µM; MIC ([18]; 48 h, read-out: MIC SA 48h): > 500 µM; MIC [19, 25]: > 500 µM; MIC [19, 26]: > 500 µM; MIC ([20]; 24 h, read-out: MIC MRSA 24h): > 500 µM; MIC ([20]; 48 h, read-out: MIC MRSA 48h): > 500 µM
